Measurements taken from patent US20240301003A1 (NoNO Inc., priority 2021, published 2024).
Where a SMILES comes first, the peptide text is derived from it. Where no end group is shown, it is not given here. [ ]: non-standard residue; d: D form.

Key:
[1] = target: T1, plasmin (Homo sapiens, UniProt P00747); assay: Plasmin sensitivity: peptides in PBS challenged with 10 ug/ml plasmin, HPLC; settings: 10 ug/mL plasmin, 45 minutes (FIG. 29)
[2] = target: T1, plasmin; assay: in vitro; settings: isolated enzyme plasmin
[3] = Pharmacokinetic analysis in rats (subcutaneous, pulmonary instillation, intravenous, intramuscular), HPLC
Method: Rats were anaesthetized in the supine position (Isoflurane 1.5--%) and allowed to breath spontaneously in 0.5 L/min 02. The left femoral artery was cannulated for blood sampling.
Test agents were prepared at the stablish concentration in a total volume of vehicle. Pulmonary instillation was performed by intubation with a 14G catheter connected to a 1 cc syringe and the test agent will be delivered through the catheter. Subcutaneous (SQ or SC) injection was injected into the area of the left flank, no more than 2 ml of total volume per site.
Each dose was evaluated in 3 rats for each administration strategy. […] For the first experiment, evaluating two different administration routes (SQ and PI), blood samples were collected at 8 different timepoints: Pre and at 7 additional times (1, 2.5, 5, 10, 15, 30, 60 min) post dose (250 ul/sample).
HPLC quantification: Plasma was separated from blood and stored at −−−80° C. until used. […] Standard curves for HPLC were generated from plasma samples spiked with known quantities of test agent.

[4] = target: PSD95PDZ2 (Homo sapiens, UniProt P78352); assay: Competitive ELISA with biotinylated-NA-1; settings: PSD-95 domain 2, FIG. 12
Sequence of PSD95PDZ2 (P78352 160-246 limits assumed): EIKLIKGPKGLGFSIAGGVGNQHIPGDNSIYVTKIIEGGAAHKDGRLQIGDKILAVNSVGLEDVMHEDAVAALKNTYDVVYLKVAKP

[5] = test system: plasmin; assay: peptides in PBS challenged with 10 ug/ml plasmin; settings: 37 C, up to 30 minutes
[6] = test system: plasmin; assay: 10 ug/mL plasmin; settings: up to 45 minutes
[7] = MTD studies and renal toxicity in rats (creatinine, BUN); settings: rats, addition of sodium benzoate (NA-3+SB)
[8] = test system: histamine release; assay: Histamine release in rats, plasma histamine ELISA; settings: co-administration of lodoxamide (0.6 mg/kg)
Method: Histamine levels were quantified by using commercially available histamine ELISA assay kit (Histamine ELISA-H1531-K01, Eagle Bioscience). The plates were coated with the plasma samples (50 ul/well) incubated for 60 minutes at room temperature on an orbital shaker with medium frequency. Then 100 ul of enzyme conjugate was added to the wells and incubated for 20 minutes at room temperature. […] The reaction was stopped with 100 ul H2SO4. Absorbance was determined on an ELISA plate reader at 450 nm.
Blood samples were taken at pre-injection and at 0, 1, 2.5, 5, 10, 15, 30- and 60-minutes post dose and used for histamine levels quantification using commercially available kit.

T1 sequence (P00747 581-810 limits assumed, species assumed): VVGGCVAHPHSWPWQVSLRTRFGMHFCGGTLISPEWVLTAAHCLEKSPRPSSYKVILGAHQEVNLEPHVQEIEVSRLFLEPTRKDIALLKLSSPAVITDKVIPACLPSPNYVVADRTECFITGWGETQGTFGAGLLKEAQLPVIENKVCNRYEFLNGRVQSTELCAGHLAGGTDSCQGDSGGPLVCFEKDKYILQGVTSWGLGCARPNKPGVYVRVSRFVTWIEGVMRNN
T1 sequence (P00747 97-580 partner limits assumed, species assumed): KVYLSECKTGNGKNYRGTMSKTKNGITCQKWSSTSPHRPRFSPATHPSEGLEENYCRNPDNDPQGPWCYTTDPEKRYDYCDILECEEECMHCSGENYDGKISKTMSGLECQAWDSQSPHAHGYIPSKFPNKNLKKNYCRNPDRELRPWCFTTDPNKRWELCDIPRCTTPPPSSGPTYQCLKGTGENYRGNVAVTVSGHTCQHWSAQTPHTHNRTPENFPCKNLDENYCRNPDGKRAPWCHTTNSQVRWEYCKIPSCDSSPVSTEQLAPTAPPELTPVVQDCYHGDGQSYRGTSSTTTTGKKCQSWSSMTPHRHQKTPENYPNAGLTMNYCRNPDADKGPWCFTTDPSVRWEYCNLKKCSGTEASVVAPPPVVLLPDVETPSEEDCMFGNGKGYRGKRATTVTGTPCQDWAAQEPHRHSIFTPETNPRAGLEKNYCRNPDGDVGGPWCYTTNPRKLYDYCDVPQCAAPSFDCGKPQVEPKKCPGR

Compound: CC[C@H](C)[C@H](NC(=O)[C@H](CCCNC(=N)N)NC(=O)[C@@H](CCCNC(=N)N)NC(=O)[C@@H](CCCNC(=N)N)NC(=O)[C@H](CCC(N)=O)NC(=O)[C@@H](CCCNC(=N)N)NC(=O)[C@H](CCCNC(=N)N)NC(=O)[C@@H](CCCCN)NC(=O)[C@H](CCCCN)NC(=O)[C@@H](N)CCCNC(=N)N)C(=O)N[C@@H](CCC(=O)O)C(=O)N[C@@H](CO)C(=O)N[C@@H](CC(=O)O)C(=O)N[C@H](C(=O)O)C(C)C [NoNO 414, RKkRrQrrRIESDV] (HELM PEPTIDE1{R.K.[dK].R.[dR].Q.[dR].[dR].R.I.E.S.D.V}$$$$V2.0)
- plasmin resistance [1]: resistance to plasmin

Compound: CC[C@H](C)[C@H](NC(=O)[C@H](CO)NC(=O)[C@H](CO)NC(=O)[C@H](CC(C)C)NC(=O)[C@H](CCCCN)NC(=O)[C@@H](CCCNC(=N)N)NC(=O)[C@H](CCCNC(=N)N)NC(=O)[C@H](CCCNC(=N)N)NC(=O)[C@@H](CCC(N)=O)NC(=O)[C@H](CCCNC(=N)N)NC(=O)[C@H](CCCNC(=N)N)NC(=O)[C@@H](CCCCN)NC(=O)[C@H](CCCCN)NC(=O)[C@H](CCCNC(=N)N)NC(=O)CNC(=O)[C@@H](N)Cc1ccc(O)cc1)C(=O)N[C@@H](CCC(=O)O)C(=O)N[C@@H](CO)C(=O)N[C@@H](CC(=O)O)C(=O)N[C@H](C(=O)O)C(C)C [NA-411.4] (HELM PEPTIDE1{Y.G.R.K.[dK].R.R.[dQ].R.R.[dR].K.L.S.S.I.E.S.D.V}$$$$V2.0; N-terminus and C-terminus assumed)
- remaining at 0.5 h, 65 ug/ml [2]: ~100%

Compound: CC[C@@H](C)[C@@H](NC(=O)[C@@H](CO)NC(=O)[C@@H](CO)NC(=O)[C@@H](CC(C)C)NC(=O)[C@@H](CCCCN)NC(=O)[C@@H](CCCNC(=N)N)NC(=O)[C@@H](CCCNC(=N)N)NC(=O)[C@@H](CCCNC(=N)N)NC(=O)[C@@H](CCC(N)=O)NC(=O)[C@@H](CCCNC(=N)N)NC(=O)[C@@H](CCCNC(=N)N)NC(=O)[C@@H](CCCCN)NC(=O)[C@@H](CCCCN)NC(=O)[C@@H](CCCNC(=N)N)NC(=O)CNC(=O)[C@H](N)Cc1ccc(O)cc1)C(=O)N[C@H](CCC(=O)O)C(=O)N[C@H](CO)C(=O)N[C@H](CC(=O)O)C(=O)N[C@@H](C(=O)O)C(C)C [D-NA-1, ygrkkrrqrrrklssiesdv] (HELM PEPTIDE1{[dY].G.[dR].[dK].[dK].[dR].[dR].[dQ].[dR].[dR].[dR].[dK].[dL].[dS].[dS].[dI].[dE].[dS].[dD].[dV]}$$$$V2.0)
- plasma concentration and plasma exposure relative to intrapulmonary NA-1 ([3]; pulmonary instillation): higher plasma concentration and a greater plasma exposure
- AUC compared with subcutaneous NA-1 ([3]; subcutaneous 25 mg/kg): increased Cmax and AUC relative to subcutaneous NA-1 but not to the same extent
- Cmax compared with subcutaneous NA-1 ([3]; subcutaneous 25 mg/kg): increased Cmax and AUC relative to subcutaneous NA-1 but not to the same extent
- EC50 (compared between peptides) [4]: about ten-fold lower

Compound: YGrKKRrQrRRkLSSIESDV (YG[dR]KKR[dR]Q[dR]RR[dK]LSSIESDV)
- not cleaved [5]: essentially 100% intact peptide after 30 minutes

Compound: YGRKkRRqRRrKLSSIESDV (YGRK[dK]RR[dQ]RR[dR]KLSSIESDV)
- not cleaved [5]: essentially 100% intact peptide after 30 minutes

Compound: YGrKKRrQRRrKLSSIESDV (YG[dR]KKR[dR]QRR[dR]KLSSIESDV)
- not cleaved [5]: essentially 100% intact peptide after 30 minutes

Compound: CC[C@H](C)[C@H](NC(=O)[C@H](CO)NC(=O)[C@H](CO)NC(=O)[C@H](CC(C)C)NC(=O)[C@H](CCCCN)NC(=O)[C@@H](CCCNC(=N)N)NC(=O)[C@H](CCCNC(=N)N)NC(=O)[C@H](CCCNC(=N)N)NC(=O)[C@H](CCC(N)=O)NC(=O)[C@@H](CCCNC(=N)N)NC(=O)[C@H](CCCNC(=N)N)NC(=O)[C@H](CCCCN)NC(=O)[C@H](CCCCN)NC(=O)[C@@H](CCCNC(=N)N)NC(=O)CNC(=O)[C@@H](N)Cc1ccc(O)cc1)C(=O)N[C@@H](CCC(=O)O)C(=O)N[C@@H](CO)C(=O)N[C@@H](CC(=O)O)C(=O)N[C@H](C(=O)O)C(C)C [NA-4.4.1] (HELM PEPTIDE1{Y.G.[dR].K.K.R.[dR].Q.R.R.[dR].K.L.S.S.I.E.S.D.V}$$$$V2.0; N-terminus and C-terminus assumed)
- remaining at 0.5 h, 65 ug/ml [2]: ~100%

Compound: CC[C@H](C)[C@H](NC(=O)[C@H](CCCNC(=N)N)NC(=O)[C@H](CCCNC(=N)N)NC(=O)[C@@H](CCCNC(=N)N)NC(=O)[C@H](CCC(N)=O)NC(=O)[C@@H](CCCNC(=N)N)NC(=O)[C@H](CCCNC(=N)N)NC(=O)[C@H](CCCCN)NC(=O)[C@H](CCCCN)NC(=O)[C@H](N)CCCNC(=N)N)C(=O)N[C@@H](CCC(=O)O)C(=O)N[C@@H](CO)C(=O)N[C@@H](CC(=O)O)C(=O)N[C@H](C(=O)O)C(C)C [NoNO 415, rKKRrQrRRIESDV] (HELM PEPTIDE1{[dR].K.K.R.[dR].Q.[dR].R.R.I.E.S.D.V}$$$$V2.0)
- plasmin resistance [1]: resistance to plasmin

Compound: RkkrrQrRrIESDV (HELM PEPTIDE1{R.[dK].[dK].[dR].[dR].Q.[dR].R.[dR].I.E.S.D.V}$$$$V2.0; N-terminus and C-terminus assumed; SMILES CC[C@H](C)[C@H](NC(=O)[C@@H](CCCNC(=N)N)NC(=O)[C@H](CCCNC(=N)N)NC(=O)[C@@H](CCCNC(=N)N)NC(=O)[C@H](CCC(N)=O)NC(=O)[C@@H](CCCNC(=N)N)NC(=O)[C@@H](CCCNC(=N)N)NC(=O)[C@@H](CCCCN)NC(=O)[C@@H](CCCCN)NC(=O)[C@@H](N)CCCNC(=N)N)C(=O)N[C@@H](CCC(=O)O)C(=O)N[C@@H](CO)C(=O)N[C@@H](CC(=O)O)C(=O)N[C@H](C(=O)O)C(C)C)
- not cleaved [6]: no degradation observed in 45 minutes

Compound: O=C([O-])c1ccccc1.[Na+] [sodium benzoate, reference compound]
- effect on creatinine and BUN levels induced by 25 mg/kg NA-3 [7]: reduces the creatinine and BUN levels

Compound: CC[C@H](C)[C@H](NC(=O)[C@@H](CCCNC(=N)N)NC(=O)[C@H](CCCNC(=N)N)NC(=O)[C@@H](CCCNC(=N)N)NC(=O)[C@H](CCC(N)=O)NC(=O)[C@@H](CCCNC(=N)N)NC(=O)[C@@H](CCCNC(=N)N)NC(=O)[C@@H](CCCCN)NC(=O)[C@@H](CCCCN)NC(=O)[C@@H](N)CCCNC(=N)N)C(=O)N[C@@H](CCC(=O)O)C(=O)N[C@@H](CO)C(=O)N[C@@H](CC(=O)O)C(=O)N[C@H](C(=O)O)C(C)C [NoNO 411, RkkrrQrRrIESDV] (HELM PEPTIDE1{R.[dK].[dK].[dR].[dR].Q.[dR].R.[dR].I.E.S.D.V}$$$$V2.0; N-terminus and C-terminus assumed)
- plasmin resistance [1]: resistance to plasmin

Compound: RKkRrQrrRIESDV
- not cleaved [6]: no degradation observed in 45 minutes

Compound: N#Cc1cc(NC(=O)C(=O)O)c(Cl)c(NC(=O)C(=O)O)c1 [lodoxamide, 2-[2-chloro-5-cyano-3-(oxaloamino)anilino]-2-oxoacetic acid, reference compound]
- effect on histamine induced by D-Tat-L-2B9C at 7.6 mg/kg IV [8]: abrogated

Compound: rKKRrQrRRIESDV
- not cleaved [6]: no degradation observed in 45 minutes
